Here are results for ten compounds from US20240401101A1, “A LIVE CELL ASSAY TO DETERMINE PERMEABILITY OF TEST MOLECULES TO AND/OR WITHIN THE PEPTIDOGLYCAN SCAFFOLD OF BACTERIA CELLS” (priority 2021, published 2024).

Assay [1] relates to M. smegmatis mc^2 155. Nature of the assay: Example IV: metabolic PG labeling of Msm with DBCO tags followed by azide fluorophore, flow cytometry. Type of assay: cell-based, Mycobacterium smegmatis. The settings on record: for cellular fluorescence with azide-modified fluorophore in cells pre-labeled with TetD: 25 μM TetD, fluorophore 1 h at 37° C. How it is done: General method for bacterial peptidoglycan modification. M. smegmatis strains was inoculated from the glycerol stock to the according media and grown for 24 hours until 0.5-0.6 OD, tetrapeptide probes were added to the media and the cells were grown overnight to achieve stationary phase. The cells were harvested the next day and spun down for 2 min at 3000 g, washed with phosphate buffered saline with tween80 (PBST, PBS with 0.05% tween 80) two times and resuspended in PBST to yield DBCO-modified M. smegmatis cells for further labeling and other experiments.
(§1) DBCOtetra compared with stereo control and single amino acid DBCO. M. smegmatis mc^2 155 was inoculated from stationary phase in 1:100 dilution to a fresh 7H9 media with ADC. 25 μM Dap-DBCO, DBCOtetra or DBCOtera(L) were added to the culture tubes respectively, and the cells were grown for 36-40 hours until stationary phase. The cells were harvested and spun down for 2 min at 3000 g, washed with PBST two times and resuspended in PBST. To a 96-well plate added 100 μL cells pre well with 50 μM FAM-N3 in triplicate. The plate was incubated in 37° C. for 1 h and spun down for 2 min at 3000 g. The supernatant was decanted, and the pellets were washed with PBST for 2 times and fixed with 4% formaldehyde for 15 mins. The samples were then analyzed by Attune™ NxT Acoustic Focusing Cytometer.
as §1, with “Confirm for click chemistry on PG.” for “DBCOtetra compared with stereo control and single amino acid DBCO.”, “μM” for “μM Dap-DBCO,”, “FL-tetra” for “DBCOtera(L)”, “uL” for “μL”, “FAM-N3 or 5-carboxy fluorescein accordingly” for “FAM-N3”
as §1, with “Different concentrations of DBCOtetra.” for “DBCOtetra compared with stereo control and single amino acid DBCO.”, “ADC. 5 μM, 10 μM or” for “ADC.”, “μM” for “μM Dap-DBCO,”, “DBCOtetra” for “DBCOtetra or DBCOtera(L)”, “1h” for “1 h”
Different concentration of FAM-N3 and different time. M. smegmatis mc^2 155 was inoculated from stationary phase in 1:100 dilution to a fresh 7H9 media with ADC. 25 μM DBCOtetra were added to the culture tubes, and the cells were grown for 36-40 hours until stationary phase. The cells were harvested and spun down for 2 min at 3000 g, washed with PBST two times and resuspended in PBST. To a 96-well plate added 100 μL cells pre well with different concentration of FAM-N3 described in the main text, 9 wells each. […] The samples were then analyzed by Attune™ NxT Acoustic Focusing Cytometer. […]
Background: Flow cytometry measures light scatter and fluorescence of single cells or particles in a stream.

For a further assay, the system named is S. aureus (ATCC 25923). Nature of the assay: Flow cytometry of S. aureus treated with thiol PG analogs / cystine enantiomers, then Mal-Fl. In kind it is cell-based, Staphylococcus aureus. The conditions noted are these: DTT 5 mM, 25 μM Mal-Fl. Here is the method: Flow cytometry analysis of S. aureus treated with thiol analogue panel. LB media containing 1 mM of each respective thiol analogue or dimethyl sulfoxide (DMSO) were prepared. S. aureus ATCC 25923 cells from an overnight culture were added to the medium (1:100 dilution) and allowed to grow overnight at 37° C. with shaking at 250 rpm. The cells were harvested at 4000 rpm and treated with 5 mM dithiothreitol (DTT) at the original culture volume for 5 minutes, to reverse any thiol oxidation that may have occurred. The cells were harvested at 4000 rpm and washed twice at the original culture volume with 1× phosphate-buffered saline (PBS) to remove residual DTT. […] The cells were washed once more to remove formaldehyde and then analyzed using the Attune NxT flow cytometer equipped with a 488 nm laser and 525/40 nm bandpass filter. The data were analyzed using the Attune NXT Software.
Flow cytometry analysis of S. aureus treated with cystine enantiomers. […] The cells were washed once more to remove formaldehyde and then analyzed using the Attune NxT flow cytometer as described above.
The first goal was to identify which cysteine-based label would result in the highest level of thiol handles on the surface of S. aureus. […] Incubation of cells with D-cystine (2) led to a ˜12-fold increase in cellular fluorescence relative to DMSO treated cells. […]

The next assay has as its system S. aureus (ΔclpX). The assay can be described thus: DBCO-pegn-Fl library in clpX deletion strain. In kind it is cell-based, Staphylococcus aureus. The settings on record: 1 mM D-LysAz, 25 μM probe, versus WT SA546.
Assay [2] concerns WT S. aureus (ATCC 25923). Type of assay: cell-based, Staphylococcus aureus.
Procedure: LB media containing 1 mM of D-LysAz were prepared. S. aureus ATCC 25923 cells supplemented with 0.1 μg/mL tunicamycin, S. aureus ΔtarO cells supplemented with 150 μg/mL spectinomycin, or S. aureus ATCC 25923 cells from overnight cultures were added to the medium (1:100 dilution) and allowed to grow overnight at 37° C. with shaking at 250 rpm. The cells were harvested at 4000 rpm and washed three times at the original culture volume with 1×PBS. Each strain was then treated with the DBCO-pegn-Fl library. All library members were used at a 25 μM concentration for 30 minutes at 37° C. and protected from light. The samples were subsequently harvested at 4000 rpm and washed three times with 1×PBS followed by fixation with 2% formaldehyde in 1×PBS for 30 minutes. The cells were washed once more to remove formaldehyde and then analyzed using the Attune NxT flow cytometer as described above.
LB media containing either 1 mM of D-LysAz, N^ε-azido-L-lysine hydrochloride (L-LysAz), or DMSO were prepared. S. aureus ATCC 25923 cells were added to the LB medium (1:100) and allowed to grow overnight at 37° C. with shaking at 250 rpm. The cells were harvested at 4000 rpm and washed three times at the original culture volume with 1×PBS. […] The cells were washed once more to remove formaldehyde and then analyzed using the Attune NxT flow cytometer as described above.
Assay [3] relates to M. smegmatis mc^2 155. The assay can be described thus: Ldt inhibition with meropenem (incorporation of TetD). In kind it is cell-based, Mycobacterium smegmatis. The settings on record: 25 μM TetD, then Fl-az. Here is the method: Ldt inhibition with meropenem. M. smegmatis mc^2 155 was inoculated from the glycerol stock by 1 to 1000 dilution to the according media and grown for 24 hours until 0.5-0.6 OD. 25 μM DBCOtetra were added to the media, and the cells were aliquoted to a 96-well culture plate with different concentration of meropenem described in the main text, in triplicate respectively. The cells were then grown overnight to achieve stationary phase. The cells were harvested and spun down for 2 min at 3000 g, washed with PBST two times and resuspended in PBST. To a 96-well plate added 100 uL cells pre well with 50 μM FAM-N3 accordingly transferred from the culture plate. The plate was incubated in 37° C. for 1 h and spun down for 2 min at 3000 g. The supernatant was decanted, and the pellets were washed with PBST for 2 times and fixed with 4% formaldehyde for 15 mins. The samples were then analyzed by Attune™ NxT Acoustic Focusing Cytometer.

Assay [4] relates to WT S. aureus (ATCC 25923). Nature of the assay: Flow cytometry of D-cystine tagged S. aureus treated with Mal-pegn-Fl and Mal-pron-Fl accessibility probes, with or without tunicamycin. Type of assay: cell-based, Staphylococcus aureus. The conditions noted are these: 0.001-0.1 μg/mL tunicamycin, 25 μM Mal-Fl. Here is the method:
(§2) Flow cytometry analysis of S. aureus strains treated with Mal-pegn-Fl and Mal-pron-Fl libraries. LB media containing 1 mM of D-cystine were prepared. S. aureus ATCC 25923, S. aureus ATCC 25923 supplemented with 0.1 μg/mL tunicamycin, S. aureus ΔtarO supplemented with 150 μg/mL spectinomycin, USA300, or S. aureus SCO1 cells from overnight cultures were added to the medium (1:100 dilution) and allowed to grow overnight at 37° C. with shaking at 250 rpm. The cells were harvested at 4000 rpm and treated with 5 mM DTT at the original culture volume for 5 minutes, to reverse any thiol oxidation that may have occurred. The cells were harvested at 4000 rpm and washed twice at the original culture volume with 1×PBS to remove residual DTT. Each strain was then treated with both libraries, Mal-pegn-Fl and Mal-pron-Fl, in parallel. All library members were used at a 25 μM concentration for 30 minutes at 37° C. and protected from light. The samples were subsequently harvested at 4000 rpm and washed three times with 1×PBS followed by fixation with 2% formaldehyde in 1×PBS for 30 minutes. The cells were washed once more to remove formaldehyde and then analyzed using the Attune NxT flow cytometer as described above.
(§3) Tunicamycin scan. […] The cells were washed once more to remove formaldehyde and then analyzed using the Attune NxT flow cytometer as described above.

In a further assay the test system is S. aureus (ΔtarO). The assay can be described thus: Flow cytometry of D-cystine tagged WTA deletion strain treated with maleimide accessibility probes. In kind it is cell-based, Staphylococcus aureus. The settings on record: 0.1 μg/mL tunicamycin, 25 μM Mal-Fl. Here is the method: as §2, §3

Procedure for S. aureus (ΔclpX): TSB media containing 1 mM of D-LysAz were prepared. S. aureus SA546, ΔclpX, or ΔclpXΔltaS cells from overnight cultures were added to the medium (1:100 dilution) and allowed to grow overnight at 37° C. with shaking at 250 rpm. The cells were harvested at 4000 rpm and washed three times at the original culture volume with 1×PBS. Each strain was then treated with the DBCO-pegn-Fl library. All library members were used at a 25 μM concentration for 30 minutes at 37° C. and protected from light. The samples were subsequently harvested at 4000 rpm and washed three times with 1×PBS followed by fixation with 2% formaldehyde in 1×PBS for 30 minutes. The cells were washed once more to remove formaldehyde and then analyzed using the Attune NxT flow cytometer as described above.

Consider `N[C@H](CNC(=O)CCC(=O)N1Cc2ccccc2C#Cc2ccccc21)C(=O)O` [D-DapD], for which the “PG labeling levels (fluorescence) above vehicle treated cells” value in the assay on M. smegmatis mc^2 155 [1] (Msm, metabolic label then Fl-az) is on record as roughly 40 fold. Take `N[C@H](CSSC[C@@H](N)C(=O)O)C(=O)O` [D-cystine]: in the assay with S. aureus (ATCC 25923) (1 mM PG analog overnight), the “increase in cellular fluorescence relative to DMSO treated cells” value is given as roughly 12 fold. In the case of `O=C1OC2(c3ccc(O)cc3Oc3cc(O)ccc32)c2ccc(NC(=S)NCCC(=O)N3Cc4ccccc4C#Cc4ccccc43)cc21` [DBCO-Fl, fluorescein-DBCO], the “permeation of probe on deletion of clpX alone” value in the assay with S. aureus (ΔclpX) was “did not lead to an increase”. As to `O=C(CCC(=O)N1Cc2ccccc2C#Cc2ccccc21)NCCOCCOCCOCCOCCOCCOCCOCCOCCOCCNC(=S)Nc1ccc(-c2c3ccc(=O)cc-3oc3cc(O)ccc23)c(C(=O)O)c1` [DBCO-peg9-Fl], the “increase in cellular fluorescence on co-incubation of cells with tunicamycin” value in assay [2] was roughly 17 fold.

On to `[N-]=[N+]=Nc1ccc2c(c1)C1(OC2=O)c2ccc(O)cc2Oc2cc(O)ccc21` [Fl-az, 6-azido-fluorescein], for which the “cellular fluorescence with azide-modified fluorophore in cells pre-labeled with TetD” value with M. smegmatis mc^2 155 [1] was “concentration-dependent and time-dependent increase in cellular fluorescence”. With `Cl.[N-]=[N+]=NNCCCC[C@H](N)C(=O)O` [L-LysAz, N^ε-azido-L-lysine hydrochloride], in assay [2], the “cellular fluorescence after DBCO-Fl” value is “background fluorescence levels”.

Consider `N[C@@H](CSSC[C@H](N)C(=O)O)C(=O)O` [L-cystine], for which the “cellular fluorescence compared to DMSO treated cells” value with S. aureus (ATCC 25923) (1 mM overnight) is listed as “minimal increase”. With `C[C@@H](O)[C@H]1C(=O)N2C(C(=O)O)=C(S[C@@H]3CN[C@H](C(=O)N(C)C)C3)[C@H](C)[C@H]12` [meropenem], the “cellular fluorescence with increasing levels of meropenem in the presence of TetD” value in the assay with M. smegmatis mc^2 155 [3] was “concentration dependent decrease in cellular fluorescence”. Consider `[N-]=[N+]=Nc1ccc2c(c1)C1(OC2=O)c2ccc(N)cc2Oc2cc(N)ccc21` [rhodamine 110, 6-azido-rhodamine 110], for which the “cellular fluorescence with azide-modified fluorophore in cells pre-labeled with TetD” value in the assay with M. smegmatis mc^2 155 [1] was “higher than Fl-az, albeit with a lower fold increase over unlabeled cells”. For the compound tunicamycin, in assay [4], the “effect of tunicamycin treatment on cellular fluorescence” value is listed as “higher overall levels of cellular fluorescence in a concentration dependent manner”. Further, in the assay on S. aureus (ΔtarO), the “effect of tunicamycin on ΔtarO cells” value is listed as “minimal additive effect”.
